Experimental findings from paper PMC11940194, “Synthesis, Antiproliferative Activity, and ADME Profiling of Novel Racemic and Optically Pure Aryl-Substituted Purines and Purine Bioisosteres” (Biomolecules, 2025) are described below.

A word on the IC50: it is the concentration needed to halve the response being measured. Read a low IC50 as greater potency.

Data set [1] concerns breast adenocarcinoma (MCF7) cells. The data set can be described thus: Antiproliferative MTT assay, MCF-7. Type of data set: cell-based, human. Particulars: for IC50: Homo sapiens, MCF7, 72 h incubation, MTT, mean ± SD. Summed up:
(§1)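 Cells grown in DMEM or MEM with 10% FBS at 37 °C, 5% CO2; tumour lines seeded at 3000 and fibroblasts at 5000 cells/well. Compounds added at 0.01 to 100 µM for 72 h, growth read by MTT. IC50 from dose–response curves by linear regression, tetraplicates, two experiments.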

Data set [2] relates to pancreatic ductal adenocarcinoma (CFPAC-1) cells. The experiment in a line: Antiproliferative MTT assay, CFPAC-1. Type of data set: cell-based, human. To be noted: for IC50: 72 h incubation, MTT, mean ± SD. The gist of the method:
as §1

The subject of data set [3] is hepatocellular carcinoma (HepG2) cells. The data set can be described thus: Antiproliferative MTT assay, HepG2. Type of data set: cell-based, human. To be noted: for IC50: Homo sapiens, HepG2, 72 h, 72 h incubation, MTT, mean ± SD. Summed up: as §1
(Formazan colour is commonly taken as a measure of viable cells.)

Data set [4] concerns normal skin fibroblasts (HFF-1). The experiment in a line: Cytotoxicity MTT assay, normal skin fibroblasts. In kind it is cell-based, human. To be noted: Homo sapiens, HFF-1, 72 h, 72 h incubation, mean ± SD. Summed up:
as §1

A short description of data set [5]: Hydrolytic stability in aqueous buffer (UV/Vis). Type of data set: physicochemical. To be noted: phosphate buffer/DMSO 99:1, pH 7.4, 1 × 10⁻⁴ mol dm⁻³, UV/Vis spectra over 24 h. The source says:
Solvents and chemicals, including starting purines and purine bioisosters 1–5, as well as para-substituted 2-phenyloxiranes 11–15 and phenacyl bromide 21–25, were purchased from Sigma-Aldrich (St. Louis, MO, USA), Alfa Aesar (Haverhill, MA, USA), and Fisher Scientific International (Pittsburgh, PA, USA). The progress of all reactions was monitored by thin layer chromatography on pre-coated Merck (Darmstadt, Germany) silica gel plates 60F254. The synthesized compounds were purified via column chromatography using Fluka (Buchs, Switzerland) silica gel (0.063−0.2 mm) and the appropriate solvent. All NMR spectra were recorded using a Bruker 300, 400, and 600 MHz NMR spectrometer (Bruker Biospin, Rheinstetten, Germany) in deuterated DMSO solutions, with TMS as the internal standard. The melting points of all newly synthesized compounds were determined using a Koffler (Reichert, Vienna) hot stage microscope. The ^1H (δ/ppm) and ^13C NMR (δ/ppm) spectra of compounds 26a,b–49a,b can be found in the Supporting Information (Figures S1–S48). The purity of all newly synthesized compounds was determined by elemental analysis and the elemental analysis results are within 0.5% of the theoretical values. The UV/Vis absorption spectra of compounds 40a, 45a, and 49b were measured at a concentration of 1 × 10⁻⁴ mol dm⁻³ in phosphate buffer and DMSO (99:1, v/v) at pH 7.4 using a Varian Cary 50 spectrophotometer in double-beam mode at 25 °C.
Selected 6-chloropurine (40a), 4-chloropyrrolo[2,3-d]pyrimidine (45a), and 4-chloroimidazo[4,5-c]pyridine (49b) with significant antiproliferative activity were examined for hydrolytic stability in an aqueous buffer solution.
2. UV/Vis absorption spectra of selected compounds
Figure S49. UV/Vis absorption spectra of compounds 40a (a), 45a (b), and 49b (c) recorded in phosphate buffer with 1% DMSO (99:1, v/v) at pH 7.4 (c = 1 × 10⁻⁴ mol dm⁻³). Spectra were measured immediately after sample preparation and after 24 hours to evaluate spectral stability over time.
(1 picture or pasted object on this page, not shown here)

Take `OCC(c1ccc(C(F)(F)F)cc1)n1cc(Cn2ccc3c(Cl)ncnc32)nn1` (centres unmarked) [Compound 45a, 4-Chloro-7-((1-(2-hydroxy-1-(4-(trifluoromethyl)phenyl)ethyl)-1H-1,2,3-triazol-4-yl)methyl)-7H-pyrrolo[2,3-d]pyrimidine]: the IC50 is 0.5 ± 0.1 µM in data set [1]; 1 ± 0.7 µM in data set [2]; 1 to 8 µM in data set [2] (Homo sapiens, CFPAC-1, 72 h); 28 ± 0.5 µM in data set [3]; 20 ± 4.7 µM in data set [4]. Further, the “SI (MCF-7)” value in data set [1] (SI = [IC50 HFF]/[IC50 MCF-7]) amounted to 40. In addition, the “SI (CFPAC-1)” value in data set [2] (SI = [IC50 HFF]/[IC50 CFPAC-1]) is given as 20.0. In data set [5], the hydrolytic stability entry is given as “hydrolytically stable”.

Take `OC(Cn1cc(Cn2cnc3c(Cl)nccc32)nn1)c1ccc(Br)cc1` (centres unmarked) [Compound 49b, 4-Chloro-1-((1-(2-hydroxy-2-(4-bromophenyl)ethyl)-1H-1,2,3-triazol-4-yl)methyl)-1H-imidazo[4,5-c]pyridine]: the IC50 came to 46 µM in data set [1]; 21 ± 0.7 µM in data set [2] (Homo sapiens, CFPAC-1, 72 h); 4 µM in data set [3]; 21 ± 5.8 µM in data set [4]. Further, the “SI (HepG2)” value in data set [3] (SI = [IC50 HFF]/[IC50 HepG2]) is reported as 5.3. Besides, the hydrolytic stability entry in data set [5] was “hydrolytically stable”.
